# Assay results published in ChEMBL document CHEMBL4011590, “Structure-activity relationship studies on 3,5-dinitrophenyl tetrazoles as antitubercular agents” (Eur J Med Chem, 2017).
# Tests used:
# Nakaseomyces glabratus [1] = assay: Antifungal activity against Candida glabrata 20/I after 48 hrs by broth microdilution method; format: functional
# Trichosporon asahii [2] = assay: Antifungal activity against Trichosporon asahii 1188 after 24 hrs by broth microdilution method; format: functional; settings: Trichosporon asahii, 1188, 24 h
# Mycobacterium kansasii [3] = assay: Antimycobacterial activity against Mycobacterium kansasii isolate 6509/96 after 7 days by micromethod; format: functional; settings: isolate 6509/96, 168 h
# Candida albicans [4] = assay: Antifungal activity against Candida albicans ATCC 44859 after 24 hrs by broth microdilution method; format: functional; settings: ATCC 44859, 24 h
# [5] = test system: Staphylococcus epidermidis; assay: Antibacterial activity against Staphylococcus epidermidis HK6966/08 after 48 hrs by broth microdilution method; format: functional; settings: HK6966/08, 48 h
# Staphylococcus aureus [6] = assay: Antibacterial activity against Staphylococcus aureus ATCC 6538 after 24 hrs by broth microdilution method; format: functional; settings: ATCC 6538, 24 h
# Pichia kudriavzevii [7] = assay: Antifungal activity against Candida krusei E28 after 48 hrs by broth microdilution method; format: functional; settings: E28, 48 h
# Escherichia coli [8] = assay: Antibacterial activity against Escherichia coli ATCC 8739 after 48 hrs by broth microdilution method; format: functional; settings: ATCC 8739, 48 h
# Candida tropicalis [9] = assay: Antifungal activity against Candida tropicalis 156 after 24 hrs by broth microdilution method; format: functional; settings: Candida tropicalis, 156, 24 h
# Trichosporon asahii [10] = assay: Antifungal activity against Trichosporon asahii 1188 after 48 hrs by broth microdilution method; format: functional; settings: Trichosporon asahii, 1188, 48 h
# Mycobacterium kansasii [11] = assay: Antimycobacterial activity against Mycobacterium kansasii isolate 6509/96 after 21 days by micromethod; format: functional; settings: isolate 6509/96, 504 h
# Mycobacterium avium [12] = assay: Antimycobacterial activity against Mycobacterium avium CNCTC My 330/80 after 14 days by micromethod; format: functional; settings: CNCTC My 330/80, 336 h
# Enterococcus sp. [13] = assay: Antibacterial activity against Enterococcus sp. HK14365/08 after 48 hrs by broth microdilution method; format: functional; settings: HK14365/08, 48 h
# Pseudomonas aeruginosa [14] = assay: Antibacterial activity against Pseudomonas aeruginosa ATCC 9027 after 24 hrs by broth microdilution method; format: functional; settings: ATCC 9027, 24 h
# Staphylococcus aureus [15] = assay: Antibacterial activity against Staphylococcus aureus ATCC 6538 after 48 hrs by broth microdilution method; format: functional; settings: ATCC 6538, 48 h
# Klebsiella pneumoniae [16] = assay: Antibacterial activity against extended spectrum beta-lactamase producing Klebsiella pneumoniae HK14368/08 after 24 hrs by broth microdilution method; format: functional; settings: HK14368/08, 24 h
# Pseudomonas aeruginosa [17] = assay: Antibacterial activity against Pseudomonas aeruginosa ATCC 9027 after 48 hrs by broth microdilution method; format: functional; settings: ATCC 9027, 48 h
# Mycobacterium kansasii [18] = assay: Antimycobacterial activity against Mycobacterium kansasii CNCTC My 235/80 after 21 days by micromethod; format: functional; settings: CNCTC My 235/80, 504 h
# Candida albicans [19] = assay: Antifungal activity against Candida albicans ATCC 44859 after 48 hrs by broth microdilution method; format: functional; settings: ATCC 44859, 48 h
# Mycobacterium kansasii [20] = assay: Antimycobacterial activity against Mycobacterium kansasii isolate 6509/96 after 14 days by micromethod; format: functional; settings: isolate 6509/96, 336 h
# Escherichia coli [21] = assay: Antibacterial activity against Escherichia coli ATCC 8739 after 24 hrs by broth microdilution method; format: functional; settings: ATCC 8739, 24 h
# [22] = test system: Trichophyton mentagrophytes; assay: Antifungal activity against Trichophyton mentagrophytes 445 after 120 hrs by broth microdilution method; format: functional; settings: Trichophyton mentagrophytes, 445, 120 h
# Aspergillus fumigatus [23] = assay: Antifungal activity against Aspergillus fumigatus 231 after 48 hrs by broth microdilution method; format: functional; settings: Aspergillus fumigatus, 231, 48 h
# Enterococcus sp. [24] = assay: Antibacterial activity against Enterococcus sp. HK14365/08 after 24 hrs by broth microdilution method; format: functional; settings: HK14365/08, 24 h
# [25] = test system: Mycobacterium tuberculosis; assay: Antimycobacterial activity against Mycobacterium tuberculosis H37Rv CNCTC My 331/88 after 14 days by micromethod; format: functional; settings: H37Rv CNCTC My 331/88, 336 h
# [26] = test system: Staphylococcus epidermidis; assay: Antibacterial activity against Staphylococcus epidermidis HK6966/08 after 24 hrs by broth microdilution method; format: functional; settings: HK6966/08, 24 h
# Staphylococcus aureus [27] = assay: Antibacterial activity against methicillin-resistant Staphylococcus aureus HK5996/08 after 24 hrs by broth microdilution method; format: functional; settings: HK5996/08, 24 h
# Lichtheimia corymbifera [28] = assay: Antifungal activity against Absidia corymbifera 272 after 24 hrs by broth microdilution method; format: functional; settings: Lichtheimia corymbifera, 272, 24 h
# Mycobacterium avium [29] = assay: Antimycobacterial activity against Mycobacterium avium CNCTC My 330/80 after 21 days by micromethod; format: functional; settings: CNCTC My 330/80, 504 h
# Nakaseomyces glabratus [30] = assay: Antifungal activity against Candida glabrata 20/I after 24 hrs by broth microdilution method; format: functional
# Mycobacterium kansasii [31] = assay: Antimycobacterial activity against Mycobacterium kansasii CNCTC My 235/80 after 14 days by micromethod; format: functional; settings: CNCTC My 235/80, 336 h
# [32] = test system: Trichophyton mentagrophytes; assay: Antifungal activity against Trichophyton mentagrophytes 445 after 72 hrs by broth microdilution method; format: functional; settings: Trichophyton mentagrophytes, 445, 72 h
# Staphylococcus aureus [33] = assay: Antibacterial activity against methicillin-resistant Staphylococcus aureus HK5996/08 after 48 hrs by broth microdilution method; format: functional; settings: HK5996/08, 48 h
# Klebsiella pneumoniae [34] = assay: Antibacterial activity against Klebsiella pneumoniae HK11750/08 after 48 hrs by broth microdilution method; format: functional; settings: HK11750/08, 48 h
# Candida tropicalis [35] = assay: Antifungal activity against Candida tropicalis 156 after 48 hrs by broth microdilution method; format: functional; settings: Candida tropicalis, 156, 48 h
# Mycobacterium kansasii [36] = assay: Antimycobacterial activity against Mycobacterium kansasii CNCTC My 235/80 after 7 days by micromethod; format: functional; settings: CNCTC My 235/80, 168 h
# Pichia kudriavzevii [37] = assay: Antifungal activity against Candida krusei E28 after 24 hrs by broth microdilution method; format: functional; settings: E28, 24 h
# Klebsiella pneumoniae [38] = assay: Antibacterial activity against extended spectrum beta-lactamase producing Klebsiella pneumoniae HK14368/08 after 48 hrs by broth microdilution method; format: functional; settings: HK14368/08, 48 h
# Aspergillus fumigatus [39] = assay: Antifungal activity against Aspergillus fumigatus 231 after 24 hrs by broth microdilution method; format: functional; settings: Aspergillus fumigatus, 231, 24 h
# Klebsiella pneumoniae [40] = assay: Antibacterial activity against Klebsiella pneumoniae HK11750/08 after 24 hrs by broth microdilution method; format: functional; settings: HK11750/08, 24 h
# [41] = test system: Mycobacterium tuberculosis; assay: Antimycobacterial activity against Mycobacterium tuberculosis H37Rv CNCTC My 331/88 after 21 days by micromethod; format: functional; settings: H37Rv CNCTC My 331/88, 504 h
# CHO-K1 = assay: Cytotoxicity against CHOK1 cells after 24 hrs by MTT assay; format: cell-based; settings: Cricetulus griseus, CHO-K1, 24 h
# Lichtheimia corymbifera [42] = assay: Antifungal activity against Absidia corymbifera 272 after 48 hrs by broth microdilution method; format: functional; settings: Lichtheimia corymbifera, 272, 48 h
compound,measurement,setting,value
O=[N+]([O-])c1cc(-c2nnn(Cc3cccc(Br)c3)n2)cc([N+](=O)[O-])c1,MIC,Nakaseomyces glabratus [1],> 500 µM
same,MIC,Trichosporon asahii [2],> 500 µM
same,MIC99,Mycobacterium kansasii [3],0.5 µM
same,MIC,Candida albicans [4],> 500 µM
same,MIC,[5],250 µM
same,MIC,Staphylococcus aureus [6],250 µM
same,MIC,Pichia kudriavzevii [7],> 500 µM
same,MIC,Escherichia coli [8],> 500 µM
same,MIC,Candida tropicalis [9],> 500 µM
same,MIC,Trichosporon asahii [10],> 500 µM
same,MIC99,Mycobacterium kansasii [11],2 µM
same,MIC99,Mycobacterium avium [12],4 µM
same,MIC,Enterococcus sp. [13],> 500 µM
same,MIC,Pseudomonas aeruginosa [14],> 500 µM
same,MIC,Staphylococcus aureus [15],250 µM
same,MIC,Klebsiella pneumoniae [16],> 500 µM
same,MIC,Pseudomonas aeruginosa [17],> 500 µM
same,MIC99,Mycobacterium kansasii [18],2 µM
same,MIC,Candida albicans [19],> 500 µM
same,MIC99,Mycobacterium kansasii [20],1 µM
same,MIC,Escherichia coli [21],> 500 µM
same,MIC,[22],> 500 µM
same,MIC,Aspergillus fumigatus [23],> 500 µM
same,MIC,Enterococcus sp. [24],> 500 µM
same,MIC99,[25],0.25 µM
same,MIC,[26],250 µM
same,MIC,Staphylococcus aureus [27],> 500 µM
same,MIC,Lichtheimia corymbifera [28],> 500 µM
same,MIC99,Mycobacterium avium [29],8 µM
same,MIC,Nakaseomyces glabratus [30],> 500 µM
same,MIC99,Mycobacterium kansasii [31],2 µM
same,MIC,[32],> 500 µM
same,MIC,Staphylococcus aureus [33],> 500 µM
same,MIC,Klebsiella pneumoniae [34],> 500 µM
same,MIC,Candida tropicalis [35],> 500 µM
same,MIC99,Mycobacterium kansasii [36],1 µM
same,MIC,Pichia kudriavzevii [37],> 500 µM
same,MIC,Klebsiella pneumoniae [38],> 500 µM
same,MIC,Aspergillus fumigatus [39],> 500 µM
same,MIC,Klebsiella pneumoniae [40],> 500 µM
same,MIC99,[41],0.25 µM
same,IC50,CHO-K1,29 µM
same,MIC,Lichtheimia corymbifera [42],> 500 µM
COc1cccc(Cn2nnc(-c3cc([N+](=O)[O-])cc([N+](=O)[O-])c3)n2)c1,MIC,Nakaseomyces glabratus [1],> 500 µM
same,MIC,Trichosporon asahii [2],> 500 µM
same,MIC99,Mycobacterium kansasii [3],1 µM
same,MIC,Candida albicans [4],> 500 µM
same,MIC,[5],> 500 µM
same,MIC,Staphylococcus aureus [6],> 500 µM
same,MIC,Pichia kudriavzevii [7],> 500 µM
same,MIC,Escherichia coli [8],> 500 µM
same,MIC,Candida tropicalis [9],> 500 µM
same,MIC,Trichosporon asahii [10],> 500 µM
same,MIC99,Mycobacterium kansasii [11],2 µM
same,MIC99,Mycobacterium avium [12],4 µM
same,MIC,Enterococcus sp. [13],> 500 µM
same,MIC,Pseudomonas aeruginosa [14],> 500 µM
same,MIC,Staphylococcus aureus [15],> 500 µM
same,MIC,Klebsiella pneumoniae [16],> 500 µM
same,MIC,Pseudomonas aeruginosa [17],> 500 µM
same,MIC99,Mycobacterium kansasii [18],4 µM
same,MIC,Candida albicans [19],> 500 µM
same,MIC99,Mycobacterium kansasii [20],2 µM
same,MIC,Escherichia coli [21],> 500 µM
same,MIC,[22],> 500 µM
same,MIC,Aspergillus fumigatus [23],> 500 µM
same,MIC,Enterococcus sp. [24],> 500 µM
same,MIC99,[25],1 µM
same,MIC,[26],> 500 µM
same,MIC,Staphylococcus aureus [27],> 500 µM
same,MIC,Lichtheimia corymbifera [28],> 500 µM
same,MIC99,Mycobacterium avium [29],8 µM
same,MIC,Nakaseomyces glabratus [30],> 500 µM
same,MIC99,Mycobacterium kansasii [31],2 µM
same,MIC,[32],> 500 µM
same,MIC,Staphylococcus aureus [33],> 500 µM
same,MIC,Klebsiella pneumoniae [34],> 500 µM
same,MIC,Candida tropicalis [35],> 500 µM
same,MIC99,Mycobacterium kansasii [36],1 µM
same,MIC,Pichia kudriavzevii [37],> 500 µM
same,MIC,Klebsiella pneumoniae [38],> 500 µM
same,MIC,Aspergillus fumigatus [39],> 500 µM
same,MIC,Klebsiella pneumoniae [40],> 500 µM
same,MIC99,[41],1 µM
same,IC50,CHO-K1,> 100 µM
same,MIC,Lichtheimia corymbifera [42],> 500 µM
Cc1ccc(Cn2nnc(-c3cc([N+](=O)[O-])cc([N+](=O)[O-])c3)n2)cc1,MIC,Nakaseomyces glabratus [1],> 500 µM
same,MIC,Trichosporon asahii [2],> 500 µM
same,MIC99,Mycobacterium kansasii [3],0.25 µM
same,MIC,Candida albicans [4],> 500 µM
same,MIC,[5],62.5 µM
same,MIC,Staphylococcus aureus [6],31.2 µM
same,MIC,Pichia kudriavzevii [7],> 500 µM
same,MIC,Escherichia coli [8],> 500 µM
same,MIC,Candida tropicalis [9],> 500 µM
same,MIC,Trichosporon asahii [10],> 500 µM
same,MIC99,Mycobacterium kansasii [11],0.5 µM
same,MIC99,Mycobacterium avium [12],8 µM
same,MIC,Enterococcus sp. [13],> 500 µM
same,MIC,Pseudomonas aeruginosa [14],> 500 µM
same,MIC,Staphylococcus aureus [15],31.2 µM
same,MIC,Klebsiella pneumoniae [16],> 500 µM
same,MIC,Pseudomonas aeruginosa [17],> 500 µM
same,MIC99,Mycobacterium kansasii [18],1 µM
same,MIC,Candida albicans [19],> 500 µM
same,MIC99,Mycobacterium kansasii [20],0.5 µM
same,MIC,Escherichia coli [21],> 500 µM
same,MIC,[22],> 500 µM
same,MIC,Aspergillus fumigatus [23],> 500 µM
same,MIC,Enterococcus sp. [24],> 500 µM
same,MIC99,[25],0.125 µM
same,MIC,[26],62.5 µM
same,MIC,Staphylococcus aureus [27],> 500 µM
same,MIC,Lichtheimia corymbifera [28],> 500 µM
same,MIC99,Mycobacterium avium [29],16 µM
same,MIC,Nakaseomyces glabratus [30],> 500 µM
same,MIC99,Mycobacterium kansasii [31],1 µM
same,MIC,[32],> 500 µM
same,MIC,Staphylococcus aureus [33],> 500 µM
same,MIC,Klebsiella pneumoniae [34],> 500 µM
same,MIC,Candida tropicalis [35],> 500 µM
same,MIC99,Mycobacterium kansasii [36],0.5 µM
same,MIC,Pichia kudriavzevii [37],> 500 µM
same,MIC,Klebsiella pneumoniae [38],> 500 µM
same,MIC,Aspergillus fumigatus [39],> 500 µM
same,MIC,Klebsiella pneumoniae [40],> 500 µM
same,MIC99,[41],0.125 µM
same,IC50,CHO-K1,200 µM
same,MIC,Lichtheimia corymbifera [42],> 500 µM
